Bounds are passed on as bounds.

Regarding `COc1c(NC(=O)c2ccc(-c3ccncc3)cc2)cccc1N1CCN(C)CC1`, the melting point fell in the range of 153 to 155 °C.
In turn, `COC(=O)c1cc(Cl)cc([N+](=O)[O-])c1N` yielded a melting point of 110 to 111 °C.
In the case of `O=C(Nc1ccccc1)NC(Cc1ccccc1)C(=O)Nc1c(F)cc(F)cc1F` (centres undefined), the melting point fell in the range of 225 to 233 °C.
`CCSc1nc(Cl)c2sc3nc(-c4ccccc4)cc(C)c3c2n1` yielded a melting point of 150 to 154 °C.
The value for `COc1ccc(C=CBr)cc1O` was 64 to 66 °C; that for `CCCC(NS(C)(=O)=O)P(=O)(OCCCl)OCCCl` (centres undefined) was 69 to 72 °C.
The value for `Cc1cc(C(=O)O)ccc1C(N)(CC1c2ccccc2Oc2ccccc21)C(=O)O` (centres undefined) was 215 to 216 °C; that for `CCC1C(C)=NN=C(c2ccc(O)c(O)c2)c2cc(OC)c(O)cc21` (centres undefined) was 254 to 255 °C; that for `COc1ccc(S(=O)(=O)C2(C(=O)NO)CCN(CCOc3ccccc3)CC2)cc1` was 168 to 172 °C.
The value for `CCOC(=O)C=Cc1ccc(C)nc1` was 36 to 37 °C; that for `Cc1cc(-c2cncc(OC3SCC(O)C(O)C3O)c2)ccn1` (centres undefined) was 120 °C.
`CCC(=O)Nc1nc(N2CCC(c3c[nH]c4ccc(NC(C)=O)cc34)CC2)cs1` displayed a melting point of 263 to 267 °C.
The value for `CCOC(=O)c1[nH]nc(-c2ccc(C#N)cc2)c1C` was 148 °C.
With `CCOC(=O)c1cn(Cc2cnsn2)c2nc(Cl)c(F)cc2c1=O`, the melting point is 175 to 177 °C.
The value for `Nc1ncc2c(n1)N(c1cccc(CCO)c1)C(=O)N(c1ccccc1Br)C2` was 154 °C; that for `CC(C)(C)c1cc(SCCCCSCC(=O)O)cc(C(C)(C)C)c1O` was 84 to 86 °C; that for `O=C(O)C(=O)c1ccc(SCCOc2ccc3ccccc3c2)cc1` was 161 to 162 °C.
As for `COc1ccc2c(c1OC)C(C)NC(=O)N2` (centres undefined), the figure is 210 to 212 °C; as for `COC(=O)c1ccc(C2=NC(C)(C)Cc3cc(OC)c4c(c32)CC(C)(C)O4)cc1N`, 161 to 162 °C.
As for `CCc1cc([N+](=O)[O-])c(NC(CC)CC)c([N+](=O)[O-])c1C`, the figure is 51 to 53 °C; as for `COC(=O)CN(c1ccccc1C)S(=O)(=O)c1ccccc1C(=O)c1cc(OC)c2c(c1)OCO2`, 159 to 170 °C.
Compound `O=C(NNS(=O)(=O)c1ccc([N+](=O)[O-])cc1)c1ccccc1` displayed a melting point of 193 to 195 °C.
As for `COc1c([N+](=O)[O-])cc2cc(-c3ccc([N+](=O)[O-])cc3)c(=O)oc2c1OC`, the figure is 219 to 223 °C; as for `COC(=O)c1cc(OC)c([N+](=O)[O-])cc1N`, 127 to 129 °C; as for `CCCCCCCCN1C=C(C)C(=c2c(C)cc(=CC=C3C=C(C(C)(C)C)C(=O)C(C(C)(C)C)=C3)cc2C)C(C)=C1`, > 280 °C.
The value for `C=CCc1cc(C(C)=O)c(O)cc1OCCCCC#N` was 54 °C; that for `CCN1C(=O)CNCc2cc(OC)c(N)cc21` was 69 to 73 °C; that for `CCOP(=O)(CCc1cccc(-c2nc(=O)c3ccccc3s2)n1)OCC` was 149 to 150 °C.
As for `CN(C)c1cccc(CN2CC=C(c3c[nH]c4ccc(Cl)cc34)CC2)c1`, the figure is 193 to 195 °C; as for `COc1ccc(NC(=O)CN(C(=O)CNC(=O)Nc2cccc(C)c2)c2ccccc2)cc1`, 194 °C.
`CCOC(=O)c1cn(N)c2nc(C)ccc2c1=O` came in with a melting point of 173 to 174 °C.
`CCOc1nc(-c2ccc(Cl)cc2)c(CCC(=O)O)o1` had a melting point of 148 to 149 °C.
As for `CC1CCCCC1Nc1c(C(=O)O)cnn2cccc12` (centres undefined), the figure is 195 °C.
The compound `CC(C)c1cccc(C(C)C)c1NC(=O)CN1CCN(CCCSc2nc3ccccc3o2)CC1` yielded a melting point of 123 to 125 °C.
The value for `COc1ccc2c(c1)CC(C(=O)NCc1ccc(C(=O)O)cc1)N2S(=O)(=O)c1ccc(-c2ccc(F)cc2F)cc1` (centres undefined) was 143 °C; that for `CC(C)c1ccc2nc3c(C(=O)NCCCCc4cccnc4)cccn3c(=O)c2c1` was 129 to 130 °C.
As for `O=C(CCCCCCC(=O)c1ccc(F)cc1)c1ccc(F)cc1`, the figure is 123 to 124 °C; as for `CCCCNS(=O)(=O)CC(O)(CCCC)C(O)C(N)CC1CCCCC1` (centres undefined), 164 to 165 °C.
On to `C[C@H](NC(=O)c1c[nH]c2ncc(-c3cn(-c4cc(C(F)(F)F)ccc4F)cn3)nc12)C(C)(C)C`, for which the melting point was > 300 °C.
As to `Cc1nn(-c2ccc(C(F)(F)F)cn2)cc1CCCOc1cc(CC(=O)O)n(C)n1`, the melting point lay in the range of 143 to 144 °C.
`Cn1cc(C(O)(c2ccc3c(cnn3C(=O)C3CCC3)c2)C(F)(F)F)c2ccccc21` (centres undefined) displayed a melting point of 79 to 81 °C.
The value for `COc1cc(OC)nc(NC(=O)NS(=O)(=O)c2ccccc2OC(F)(F)F)n1` was 170 °C.
The value for `CCOC(=O)c1ccc2c(c1)S[C@@H](c1ccc(OC)cc1)[C@@H](OC(C)=O)C(=O)N2CCN(C)C` (racemic) was 167 to 171 °C.
The value for `O=C(N[C@@H]1CCc2cccc(N3CCNCC3)c2C1)c1ccc(N2CCOCC2)cc1` was 202 to 203 °C; that for `COc1ccccc1C(=O)c1cccc([N+](=O)[O-])c1` was 94 °C; that for `CC(C)(C1CCCCC1)C(NC(=O)c1ccc(Cl)cc1)Nc1c(Nc2cccnc2)c(=O)c1=O` (centres undefined) was 275 to 276 °C.
`Cn1c(N=C=O)c(-c2ccccc2)c2cc(Cl)ccc21` displayed a melting point of 150 °C.
`CCOC(=O)CC(=O)Nc1ccc(S)cc1` returned a melting point of 69 °C.
`C=C(C)CC(NC=O)(C(=O)OCC)C(=O)OCC` gave a melting point of 72 °C.
As for `Cn1cc(-c2cccc(N3Cc4cc(C(C)(C)C)ccc4C3=O)c2CO)cc(Nc2ccn(C3CC3)n2)c1=O`, the figure is 173 to 175 °C.
As for `COc1ccc2cc(C=C(C)C(=O)NCCN(O)C(N)=O)ccc2c1`, the figure is 174 to 176 °C.
The value for `COC(=O)C(=O)c1ccc(OCC(=O)c2ccc3ccccc3c2)cc1` was 120 to 121 °C; that for `CC1(C)OC(=O)c2ccc(COc3c(F)cc([N+](=O)[O-])cc3F)cc21` was 125 to 127 °C; that for `O=Cc1c2n(c3ccc(Cl)cc13)CCC2` was 179 to 180 °C.
For the compound `CCOC(=O)c1ncn(-c2ccc(Cl)c(Cl)c2)c1C`, the melting point fell in the range of 163 to 164 °C.
Compound `N#CC(=NOC(=O)OCc1ccccc1)c1ccccc1` gave a melting point of 73 to 75 °C.
As for `CCCNC(=O)Oc1ccc(C(O)(CC)c2ccc(Cl)cc2)cc1` (centres undefined), the figure is 71 to 72 °C.
As for `CC1(C)CCC(C)(C)c2cc(C(=O)C(=O)Nc3ccc(C(=O)O)cc3)ccc21`, the figure is 216 to 217 °C; as for `CN1CCC(c2c[nH]c3ccc(C(=O)c4ccc(C(F)(F)F)cc4)cc23)CC1`, 160 to 162 °C; as for `O=C(O)c1ccc(COCc2csc3nc(C(=O)O)[nH]c(=O)c23)cc1`, 248 °C.
As for `CCCS(=O)c1nc(OS(C)(=O)=O)c(Cl)cc1Cl` (centres undefined), the figure is 92 to 94 °C.
Compound `CCOC(=O)c1c(N(C)C)cc(C)c([N+](=O)[O-])c1Cl` returned a melting point of 76 °C.
The value for `Cc1nn(-c2cc3[nH]c(=O)ccc3cc2F)c(=O)n1C(F)F` was 215 to 217 °C.
The value for `COc1cc2ncc(C#N)c(Nc3ccc(O)cc3C)c2cc1OC` was > 250 °C; that for `CC(=O)OC1SCC2C1N(Cc1ccccc1)C(=O)N2Cc1ccccc1` (centres undefined) was 72 to 74 °C; that for `CCc1nn(CCNC(=O)COC)c(CC)c1Oc1cc(Cl)cc(Cl)c1` was 75 to 76 °C.
The value for `O=C(O)c1ccc(C(=O)N2Cc3cccn3Cc3ccccc32)c(Cl)c1` was 198 to 199 °C.
`COc1c(C)cc(C)cc1CNC(=O)CCl` showed a melting point of 124 °C.
As for `CCOC(=O)c1c(-c2ccccc2C)c2cc3c(cc2[nH]c1=O)CCC3`, the figure is 296 to 298 °C; as for `CC1(COC2CC3C4CCC5=CC(=O)CCC5(C)C4(F)C(O)CC3(C)C2(O)C(=O)CO)CO1` (centres undefined), 223 to 227 °C; as for `CCNC(=O)Nc1cccc(-c2cccc(OC)c2)c1`, 152 to 154 °C.
`CN(C)C(=O)N1Cc2c(-c3noc(C4CC4)n3)ncn2-c2cccc(F)c21` came in with a melting point of 194 to 195 °C.
For `CCCCOCC(O)CN1C(=O)NC(=O)C(CC)(c2ccccc2)C1=O` (centres undefined), the melting point came to 92 °C.
The value for `N#Cc1ccc(-c2cccc(-c3nc4cc(C#N)ccc4[nH]3)c2)cc1` was 303 to 304 °C; that for `CCN1C(=O)CC(C)(C)c2ccc(-c3nc4ccccc4[nH]3)cc21` was 257 to 259 °C; that for `COc1ccc(C(=O)Nc2c(Cl)cncc2Cl)cc1OC1COCC1O` (centres undefined) was 183 to 185 °C.
The value for `O=C(Nc1ccc(Cl)cc1)Nc1ccc2[nH]c(C(F)(F)F)nc2c1` was 264 to 268 °C.
The compound `Cc1c(C(N)=O)nnn1Cc1ccccc1Cl` came in with a melting point of 181 to 183 °C.
In turn, `COc1cc(NC(=O)CCCCCN2CCN(C)CC2)c2nccc(C)c2c1` had a melting point of 104 to 107 °C.
As for `CC1(C)[C@H](Cc2noc(C(F)(F)F)n2)CC[C@]1(C)NCC(=O)N1C[C@@H](F)C[C@H]1C#N`, the figure is 130 to 131 °C; as for `CSC(=N)Nc1nc(C(C)(C)C)c(O)c(C(C)(C)C)n1`, 163 to 165 °C; as for `CC1=C(Cl)C(=O)c2ccccc2C1=O`, 152 to 154 °C.
As for `CON1C(C)(C)CC(OC(=O)c2ccccc2C(=O)OC2CC(C)(C)N(OC)C(C)(C)C2)CC1(C)C`, the figure is 124 to 126 °C.
The value for `CC(=O)c1ccc(Nc2c(C(=O)NOCCO)ccc(F)c2F)c(Cl)c1` was 162 °C.
`COc1ccc(C(=O)C#CC(=O)O)c(OC)c1OC` had a melting point of 119 to 121 °C.
For `Nc1ccccc1C(=O)c1ccc(Cl)cc1`, the melting point lay within 100 to 102 °C.
The value for `COc1ccc(C(=O)Nc2c(Cl)cncc2Cl)cc1SC1CCCC1` was 198 °C; that for `CCCc1nc(Nc2ccc(F)c(Cl)c2)nc(NC2CCN(S(C)(=O)=O)CC2)n1` was 86 to 87 °C.
The value for `CCCCOc1ccc(CCCCCC(=O)O)cc1` was 39 to 40 °C.

Usually melting point stands for the temperature of the solid-liquid transition.
